# From patent US9447100B2, “Substituted pyrazolo[1,5-A] pyrimidines as calcium receptor modulating agents” (Takeda Pharmaceutical Company Limited, priority 2002, dated 2016)
row,melting point,Structure (SMILES)
1,152 to 153 °C,"CCC(CC)(NC(=O)c1cnn2c1NC(c1ccccc1)CC2(C)C)c1ccc(O)cc1 (stereo not drawn) [Example 701, N-(1-ethyl-1-(4-hydroxyphenyl)propyl)-7,7-dimethyl-5-phenyl-4,5,6,7-tetrahydropyrazolo[1,5-a]pyrimidine-3-carboxamide]"
2,150 to 151 °C,"CCC(CC)(Cc1ccc(C)cc1)NC(=O)c1cnn2c1NC(c1ccccc1)CC2(C)C (stereo not drawn) [Example 703, N-(1-ethyl-1-(4-methylbenzyl)propyl)-7,7-dimethyl-5-phenyl-4,5,6,7-tetrahydropyrazolo[1,5-a]pyrimidine-3-carboxamide]"
3,147 to 148 °C,"C=CCc1ccc(C(CC)(CC)NC(=O)c2cnn3c2NC(c2ccccc2)CC3(C)C)cc1 (stereo not drawn) [Example 705, N-(1-(4-allylphenyl)-1-ethylpropyl)-7,7-dimethyl-5-phenyl-4,5,6,7-tetrahydropyrazolo[1,5-a]pyrimidine-3-carboxamide]"
4,177 to 178 °C,"CCCc1ccc(C(CC)(CC)NC(=O)c2cnn3c2NC(c2ccccc2)CC3(C)C)cc1 (stereo not drawn) [Example 706, N-(1-ethyl-1-(4-propylphenyl)propyl)-7,7-dimethyl-5-phenyl-4,5,6,7-tetrahydropyrazolo[1,5-a]pyrimidine-3-carboxamide]"
5,141 to 142 °C,"CCOc1ccc(C(CC)(CC)NC(=O)c2cnn3c2NC(c2ccccc2)CC3(C)C)cc1 (stereo not drawn) [Example 722, N-(1-(4-ethoxyphenyl)-1-ethylpropyl)-7,7-dimethyl-5-phenyl-4,5,6,7-tetrahydropyrazolo[1,5-a]pyrimidine-3-carboxamide]"
6,171 to 172 °C,"CCC(CC)(NC(=O)c1cnn2c1NC(c1ccccc1)CC2(C)C)c1ccc(OC(C)=O)cc1 (stereo not drawn) [Example 728, 4-(1-(((7,7-dimethyl-5-phenyl-4,5,6,7-tetrahydropyrazolo[1,5-a]pyrimidin-3-yl)carbonyl)amino)-1-ethylpropyl)phenyl acetate]"
7,172 to 173 °C,"CCC(=O)Oc1ccc(C(CC)(CC)NC(=O)c2cnn3c2NC(c2ccccc2)CC3(C)C)cc1 (stereo not drawn) [Example 729, 4-(1-(((7,7-dimethyl-5-phenyl-4,5,6,7-tetrahydropyrazolo[1,5-a]pyrimidin-3-yl)carbonyl)amino)-1-ethylpropyl)phenyl propionate]"
8,213 to 214 °C,"CCC(CC)(NC(=O)c1cnn2c1NC(c1ccccc1)CC2(C)C)c1ccc(OCC(=O)O)cc1 (stereo not drawn) [Example 731, (4-(1-(((7,7-dimethyl-5-phenyl-4,5,6,7-tetrahydropyrazolo[1,5-a]pyrimidin-3-yl)carbonyl)amino)-1-ethylpropyl)phenoxy)acetic acid]"
9,257 to 258 °C,"CCC(CC)(NC(=O)c1cnn2c1NC(c1ccccc1)CC2(C)C)c1ccc(C(=O)O)cc1 (stereo not drawn) [Example 734, 4-(1-(((7,7-dimethyl-5-phenyl-4,5,6,7-tetrahydropyrazolo[1,5-a]pyrimidin-3-yl)carbonyl)amino)-1-ethylpropyl)benzoic acid]"
10,185 to 186 °C,"CCC(CC)(NC(=O)c1cnn2c1NC(c1ccccc1)CC2(C)C)c1ccc(COC(C)=O)cc1 (stereo not drawn) [Example 737, 4-(1-(((7,7-dimethyl-5-phenyl-4,5,6,7-tetrahydropyrazolo[1,5-a]pyrimidin-3-yl)carbonyl)amino)-1-ethylpropyl)benzyl acetate]"
11,178 to 179 °C,"CCC(CC)(NC(=O)c1cnn2c1NC(c1ccccc1)CC2(C)C)c1ccc(CO)cc1 (stereo not drawn) [Example 739, N-(1-ethyl-1-(4-(hydroxymethyl)phenyl)propyl)-7,7-dimethyl-5-phenyl-4,5,6,7-tetrahydropyrazolo[1,5-a]pyrimidine-3-carboxamide]"
12,147 to 148 °C,"CCC(CC)(NC(=O)c1cnn2c1NC(c1ccccc1)CC2(C)C)c1ccc(CCC(=O)OC)cc1 (stereo not drawn) [Example 748, methyl 3-(4-(1-(((7,7-dimethyl-5-phenyl-4,5,6,7-tetrahydropyrazolo[1,5-a]pyrimidin-3-yl)carbonyl)amino)-1-ethyl-propyl)phenyl)propanoate]"
13,240 to 241 °C,"CCC(CC)(NC(=O)c1cnn2c1NC(c1ccccc1)CC2(C)C)c1ccc(CCC(=O)O)cc1 (stereo not drawn) [Example 749, 3-(4-(1-(((7,7-dimethyl-5-phenyl-4,5,6,7-tetrahydropyrazolo[1,5-a]pyrimidin-3-yl)carbonyl)amino)-1-ethyl-propyl)phenyl)propanoic acid]"
14,135 to 136 °C,"CCOC(=O)CCc1ccc(C(CC)(CC)NC(=O)c2cnn3c2NC(c2ccccc2)CC3(C)C)cc1 (stereo not drawn) [Example 759, ethyl 3-(4-(1-(((7,7-dimethyl-5-phenyl-4,5,6,7-tetrahydropyrazolo[1,5-a]pyrimidin-3-yl)carbonyl)amino)-1-ethylpropyl)phenyl)propanoate]"
15,162 to 163 °C,"CCCOC(=O)c1ccc(C(CC)(CC)NC(=O)c2cnn3c2NC(c2ccccc2)CC3(C)C)cc1 (stereo not drawn) [Example 762, propyl 4-(1-(((7,7-dimethyl-5-phenyl-4,5,6,7-tetrahydropyrazolo[1,5-a]pyrimidin-3-yl)carbonyl)amino)-1-ethylpropyl)benzoate]"
16,194 to 195 °C,"CCC(CC)(NC(=O)c1cnn2c1NC(c1ccccc1)CC2(C)C)c1ccc(CCCO)cc1 (stereo not drawn) [Example 763, N-(1-ethyl-1-(4-(3-hydroxy-propyl)phenyl)propyl)-7,7-dimethyl-5-phenyl-4,5,6,7-tetrahydropyrazolo[1,5-a]pyrimidine-3-carboxamide]"
17,142 to 143 °C,"CCC(CC)(NC(=O)c1cnn2c1N(Cc1ccccc1)C(c1ccccc1)CC2(C)C)c1ccc(C)cc1 (stereo not drawn) [Example 765, 4-benzyl-N-(1-ethyl-1-(4-methylphenyl)propyl)-7,7-dimethyl-5-phenyl-4,5,6,7-tetrahydropyrazolo[1,5-a]pyrimidine-3-carboxamide]"
18,128 to 129 °C,"CCC(CC)(NC(=O)c1cnn2c1NC(c1ccccc1)CC2(C)C)c1ccc(N(C)C)cc1 (stereo not drawn) [Example 778, N-(1-(4-(dimethylamino)phenyl)-1-ethylpropyl)-7,7-dimethyl-5-phenyl-4,5,6,7-tetrahydropyrazolo[1,5-a]pyrimidine-3-carboxamide]"

# The remaining lines, values behind:
row,Structure (SMILES),melting point
1,"CCC(CC)(Cc1ccc(Cl)cc1)NC(=O)c1cnn2c1NC(c1ccccc1)CC2(C)C (stereo not drawn) [Example 699, N-(1-(4-chlorobenzyl)-1-ethylpropyl)-7,7-dimethyl-5-phenyl-4,5,6,7-tetrahydropyrazolo[1,5-a]pyrimidine-3-carboxamide]",156 to 157 °C
2,"CCC(CC)(Cc1ccc(OC)cc1)NC(=O)c1cnn2c1NC(c1ccccc1)CC2(C)C (stereo not drawn) [Example 704, N-(1-ethyl-1-(4-methoxybenzyl)propyl)-7,7-dimethyl-5-phenyl-4,5,6,7-tetrahydropyrazolo[1,5-a]pyrimidine-3-carboxamide]",185 to 186 °C
3,"CCC(CC)(NC(=O)c1cnn2c1NC(c1ccccc1)CC2(C)C)c1cc(-c2ccc(F)cc2)n(C)n1 (stereo not drawn) [Example 726, N-(1-ethyl-1-(5-(4-fluorophenyl)-1-methyl-1H-pyrazol-3-yl)propyl)-7,7-dimethyl-5-phenyl-4,5,6,7-tetrahydropyrazolo[1,5-a]pyrimidine-3-carboxamide]",218 to 219 °C
4,"CCOC(=O)COc1ccc(C(CC)(CC)NC(=O)c2cnn3c2NC(c2ccccc2)CC3(C)C)cc1 (stereo not drawn) [Example 730, ethyl (4-(1-(((7,7-dimethyl-5-phenyl-4,5,6,7-tetrahydropyrazolo[1,5-a]pyrimidin-3-yl)carbonyl)amino)-1-ethylpropyl)phenoxy)acetate]",178 to 179 °C
5,"CCC(CC)(NC(=O)c1cnn2c1NC(c1ccccc1)CC2(C)C)c1ccc(C(=O)OC(C)C)cc1 (stereo not drawn) [Example 733, isopropyl 4-(1-(((7,7-dimethyl-5-phenyl-4,5,6,7-tetrahydropyrazolo[1,5-a]pyrimidin-3-yl)carbonyl)amino)-1-ethylpropyl)benzoate]",205 to 206 °C
6,"CCCCOC(=O)c1ccc(C(CC)(CC)NC(=O)c2cnn3c2NC(c2ccccc2)CC3(C)C)cc1 (stereo not drawn) [Example 757, butyl 4-(1-(((7,7-dimethyl-5-phenyl-4,5,6,7-tetrahydropyrazolo[1,5-a]pyrimidin-3-yl)carbonyl)amino)-1-ethylpropyl)benzoate]",139 to 140 °C
7,"CCc1nn2c(c1C(=O)NC(CC)(CC)c1ccc(Cl)cc1)NC(c1ccccc1)CC2(C)C (stereo not drawn) [Example 758, N-(1-(4-chlorophenyl)-1-ethylpropyl)-2-ethyl-7,7-dimethyl-5-phenyl-4,5,6,7-tetrahydropyrazolo[1,5-a]pyrimidine-3-carboxamide]",183 to 184 °C
8,"CCCC(=O)Oc1ccc(C(CC)(CC)NC(=O)c2cnn3c2NC(c2ccccc2)CC3(C)C)cc1 (stereo not drawn) [Example 760, 4-(1-(((7,7-dimethyl-5-phenyl-4,5,6,7-tetrahydropyrazolo[1,5-a]pyrimidin-3-yl)carbonyl)amino)-1-ethylpropyl)phenyl butyrate]",148 to 149 °C
9,"CCC(CC)(NC(=O)c1c(C)nn2c1NC(c1ccccc1)CC2(C)C)c1ccc(F)cc1 (stereo not drawn) [Example 761, N-(1-ethyl-1-(4-fluorophenyl)propyl)-2,7,7-trimethyl-5-phenyl-4,5,6,7-tetrahydropyrazolo[1,5-a]pyrimidine-3-carboxamide]",182 to 183 °C
10,"CNC(=O)c1cnn2c1NC(c1ccccc1)CC2(C)C (stereo not drawn) [Example 768, N,7,7-trimethyl-5-phenyl-4,5,6,7-tetrahydropyrazolo[1,5-a]pyrimidine-3-carboxamide]",116 to 117 °C
11,"CCOC(=O)CCCOc1ccc(C(CC)(CC)NC(=O)c2cnn3c2NC(c2ccccc2)CC3(C)C)cc1 (stereo not drawn) [Example 770, ethyl 4-(4-(1-(((7,7-dimethyl-5-phenyl-4,5,6,7-tetrahydropyrazolo[1,5-a]pyrimidin-3-yl)carbonyl)amino)-1-ethyl-propyl)phenoxy)butanoate]",101 to 102 °C
12,"CCC(CC)(NC(=O)c1cnn2c1NC(c1ccccc1)CC2(C)C)c1ccc(OCCCC(=O)O)cc1 (stereo not drawn) [Example 771, 4-(4-(1-(((7,7-dimethyl-5-phenyl-4,5,6,7-tetrahydropyrazolo[1,5-a]pyrimidin-3-yl)carbonyl)amino)-1-ethyl-propyl)phenoxy)butanoic acid]",170 to 171 °C
